Test results: patent US20260262643A1, “HERBICIDAL BENZOXAZINES” (FMC CORPORATION, priority 2022, published 2026)

Tests used:
[1] = system: goosegrass; assay: Test A preemergence; format: in vivo, Eleusine indica
Outline: (§1)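 Plants were grown in loam and sand and treated preemergence or postemergence (one- to two-leaf stage, 2–10 cm) with compound in solvent plus surfactant. Response was scored against untreated controls after 10 greenhouse days, where 0 means no effect and 100 complete control.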

[2] = system: foxtail, giant; assay: Test A preemergence; format: in vivo, Setaria faberi
Outline: as §1

[3] = system: ryegrass, Italian; assay: Test A postemergence; format: in vivo, Lolium multiflorum; settings: postemergence, 10 days
Outline: as §1

[4] = system: blackgrass; assay: Test A postemergence; format: in vivo, Alopecurus myosuroides; settings: postemergence, 10 days
Outline: as §1

[5] = system: soybean; assay: Test A preemergence; format: in vivo, Glycine max
Outline: as §1

[6] = system: pigweed, palmer; assay: Test A preemergence; format: in vivo, Amaranthus palmeri
Outline: as §1

[7] = system: blackgrass; assay: Test A preemergence; format: in vivo, Alopecurus myosuroides
Outline: as §1

[8] = system: foxtail, giant; assay: Test A postemergence; format: in vivo, Setaria faberi; settings: postemergence, 10 days
Outline: as §1

[9] = system: rice; assay: Test B flooded paddy test; format: in vivo, Oryza sativa; settings: 250 g ai/ha, Flood, 13 days, 0 to 100 scale (0 no effect, 100 complete control)
Outline: (§2)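 Each species was raised to the 2-leaf stage. At treatment, each pot received floodwater 3 cm deep, with the chemical delivered into the water. Greenhouse holding followed for 13 days, then percent control was estimated visually versus untreated pots.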

[10] = system: corn; assay: Test A postemergence; format: in vivo, Zea mays; settings: postemergence, 10 days
Outline: as §1

[11] = system: barnyardgrass; assay: Test B flooded paddy test; format: in vivo, Echinochloa crus-galli; settings: 250 g ai/ha, Flood, 13 days, 0 to 100 scale (0 no effect, 100 complete control)
Outline: as §2

[12] = system: kochia; assay: Test A postemergence; format: in vivo, Bassia scoparia; settings: postemergence, 10 days
Outline: as §1

[13] = system: ragweed; assay: Test A postemergence; format: in vivo, Ambrosia artemisiifolia; settings: postemergence, 10 days
Outline: as §1

[14] = system: wheat; assay: Test A preemergence; format: in vivo, Triticum aestivum
Outline: as §1

[15] = system: ducksalad; assay: Test B flooded paddy test; format: in vivo, Heteranthera limosa; settings: 250 g ai/ha, Flood, 13 days, 0 to 100 scale (0 no effect, 100 complete control)
Outline: as §2

[16] = system: ragweed; assay: Test A preemergence; format: in vivo, Ambrosia artemisiifolia
Outline: as §1

[17] = system: corn; assay: Test A preemergence; format: in vivo, Zea mays
Outline: as §1

[18] = system: goosegrass; assay: Test A postemergence; format: in vivo, Eleusine indica; settings: postemergence, 10 days
Outline: as §1

[19] = system: wheat; assay: Test A postemergence; format: in vivo, Triticum aestivum; settings: postemergence, 10 days
Outline: as §1

[20] = system: oat, wild; assay: Test A postemergence; format: in vivo, Avena fatua; settings: postemergence, 10 days
Outline: as §1

[21] = system: ryegrass, Italian; assay: Test A preemergence; format: in vivo, Lolium multiflorum
Outline: as §1

[22] = system: galium; assay: Test A postemergence; format: in vivo, Galium aparine; settings: postemergence, 10 days
Outline: as §1

[23] = system: soybean; assay: Test A postemergence; format: in vivo, Glycine max; settings: postemergence, 10 days
Outline: as §1

[24] = system: kochia; assay: Test A preemergence; format: in vivo, Bassia scoparia
Outline: as §1

[25] = system: horseweed; assay: Test A postemergence; format: in vivo, Erigeron canadensis; settings: postemergence, 10 days
Outline: as §1

[26] = system: oat, wild; assay: Test A preemergence; format: in vivo, Avena fatua
Outline: as §1

[27] = system: sedge, umbrella; assay: Test B flooded paddy test; format: in vivo, Cyperus difformis; settings: 250 g ai/ha, Flood, 13 days, 0 to 100 scale (0 no effect, 100 complete control)
Outline: as §2

[28] = system: pigweed, palmer; assay: Test A postemergence; format: in vivo, Amaranthus palmeri; settings: postemergence, 10 days
Outline: as §1

[29] = 125 g ai/ha, visual injury after 10 days, 0 to 100 scale, 0 is no effect, 100 is complete control
[30] = 500 g ai/ha, 0 to 100 scale (0 no effect, 100 complete control), 10 days
[31] = 125 g ai/ha, 0 to 100 scale, 0 no effect, 100 complete control
[32] = 500 g ai/ha, visual injury, 0 to 100 scale (0 no effect, 100 complete control)

Cc1ccc(-n2cnc(C(C)C)n2)cc1C(=O)N1C[C@H](C)Oc2c(C)cccc21 [Compound 99]
40: Ragweed plant response rating [13, 31] | Plant response rating, Ducksalad [15] | Plant response rating, Ragweed [16, 29]
100: Plant response rating, Goosegrass [1, 29] | Plant response rating, Goosegrass [1, 30] | Plant response rating, Foxtail, Giant [2, 29] | Plant response rating, Foxtail, Giant [2, 30] | Plant response rating, Ryegrass, Italian [3, 32] | Plant response rating, Soybean [5, 30] | Plant response rating, Pigweed, Palmer [6, 29] | Plant response rating, Pigweed, Palmer [6, 30] | Plant response rating, Goosegrass [18, 32] | Plant response rating, Ryegrass, Italian [21, 30] | Galium plant response rating [22, 31] | Plant response rating, Galium [22, 32] | Soybean plant response rating [23, 31] | Plant response rating, Soybean [23, 32] | Plant response rating, Kochia [24, 29] | Plant response rating, Kochia [24, 30] | Plant response rating, Pigweed, Palmer [28, 32]
10: Plant response rating, Rice [9] | Plant response rating, Corn [17, 29]
35: Plant response rating, Barnyardgrass [11]
30: Plant response rating, Wheat [14, 29]
80: Plant response rating, Soybean [5, 29] | Plant response rating, Blackgrass [7, 29] | Kochia plant response rating [12, 31] | Plant response rating, Wheat [14, 30] | Plant response rating, Ragweed [16, 30] | Wheat plant response rating [19, 31] | Plant response rating, Horseweed [25, 32]
95: Plant response rating, Sedge, Umbrella [27]
70: Corn plant response rating [10, 31] | Oat, Wild plant response rating [20, 31] | Horseweed plant response rating [25, 31] | Plant response rating, Oat, Wild [26, 29]
90: Blackgrass plant response rating [4, 31] | Plant response rating, Blackgrass [4, 32] | Plant response rating, Blackgrass [7, 30] | Foxtail, Giant plant response rating [8, 31] | Plant response rating, Foxtail, Giant [8, 32] | Plant response rating, Corn [10, 32] | Plant response rating, Kochia [12, 32] | Plant response rating, Ragweed [13, 32] | Goosegrass plant response rating [18, 31] | Plant response rating, Wheat [19, 32] | Plant response rating, Oat, Wild [20, 32] | Plant response rating, Ryegrass, Italian [21, 29] | Plant response rating, Oat, Wild [26, 30] | Pigweed, Palmer plant response rating [28, 31]
50: Ryegrass, Italian plant response rating [3, 31] | Plant response rating, Corn [17, 30]
